Results published in the kinase profiling compilation of Christmann-Franck et al. (2016).

Experiments:
Assay in all cases: KINOMEscan competition binding
Conditions in all cases: compound 2.0 µM
[1] = biological target: MAPK9 (human) (UniProt P45984)
[2] = biological target: NTRK2 (human) (UniProt Q16620)
[3] = biological target: TXK (human) (UniProt P42681)
[4] = biological target: CSNK1D (human) (UniProt P48730)
[5] = biological target: STK11 (human) (UniProt Q15831)
[6] = biological target: NEK4 (human) (UniProt P51957)
[7] = biological target: EPHA8 (human) (UniProt P29322)
[8] = biological target: RET (human) (UniProt P07949)
[9] = test system: ABL1 (human), P00519 [M351T]
[10] = biological target: PTK6 (human) (UniProt Q13882)
[11] = biological target: MAPK15 (human) (UniProt Q8TD08)
[12] = biological target: PRKD2 (human) (UniProt Q9BZL6)
[13] = biological target: ACVR2A (human) (UniProt P27037)
[14] = biological target: CDK5 (human) (UniProt Q00535)
[15] = biological target: FGFR1 (human) (UniProt P11362)
[16] = biological target: MAP2K3 (human) (UniProt P46734)
[17] = biological target: AXL (human) (UniProt P30530)
[18] = test system: KIT (human), P10721 [D816V]
[19] = biological target: MAP3K13 (human) (UniProt O43283)
[20] = test system: EIF2AK4 KD2 (human), Q9P2K8 [S808G]
[21] = biological target: STK32A (human) (UniProt Q8WU08)
[22] = biological target: EPHB3 (human) (UniProt P54753)
[23] = biological target: STK39 (human) (UniProt Q9UEW8)
[24] = biological target: EPHB6 (human) (UniProt O15197)
[25] = biological target: CDC42BPG (human) (UniProt Q6DT37)
[26] = test system: PIK3CA (human), P42336 [E545A]
[27] = biological target: LATS1 (human) (UniProt O95835)
[28] = biological target: RPS6KB1 (human) (UniProt P23443)
[29] = biological target: SGK3 (human) (UniProt Q96BR1)
[30] = biological target: CDKL2 (human) (UniProt Q92772)
[31] = biological target: HUNK (human) (UniProt P57058)
[32] = biological target: ITK (human) (UniProt Q08881)
[33] = biological target: PRKCE (human) (UniProt Q02156)
[34] = biological target: CAMK1D (human) (UniProt Q8IU85)
[35] = biological target: NUAK1 (human) (UniProt O60285)
[36] = biological target: TAOK2 (human) (UniProt Q9UL54)
[37] = biological target: GRK4 (human) (UniProt P32298)
[38] = biological target: AURKA (human) (UniProt O14965)
[39] = biological target: MAP3K1 (human) (UniProt Q13233)
[40] = biological target: YSK4 (human) (UniProt Q56UN5)
[41] = biological target: PDPK1 (human) (UniProt O15530)
[42] = biological target: IRAK4 (human) (UniProt Q9NWZ3)
[43] = biological target: PRKG2 (human) (UniProt Q13237)
Chain of PRKG2 (human) (Q13237 whole entry, looked up): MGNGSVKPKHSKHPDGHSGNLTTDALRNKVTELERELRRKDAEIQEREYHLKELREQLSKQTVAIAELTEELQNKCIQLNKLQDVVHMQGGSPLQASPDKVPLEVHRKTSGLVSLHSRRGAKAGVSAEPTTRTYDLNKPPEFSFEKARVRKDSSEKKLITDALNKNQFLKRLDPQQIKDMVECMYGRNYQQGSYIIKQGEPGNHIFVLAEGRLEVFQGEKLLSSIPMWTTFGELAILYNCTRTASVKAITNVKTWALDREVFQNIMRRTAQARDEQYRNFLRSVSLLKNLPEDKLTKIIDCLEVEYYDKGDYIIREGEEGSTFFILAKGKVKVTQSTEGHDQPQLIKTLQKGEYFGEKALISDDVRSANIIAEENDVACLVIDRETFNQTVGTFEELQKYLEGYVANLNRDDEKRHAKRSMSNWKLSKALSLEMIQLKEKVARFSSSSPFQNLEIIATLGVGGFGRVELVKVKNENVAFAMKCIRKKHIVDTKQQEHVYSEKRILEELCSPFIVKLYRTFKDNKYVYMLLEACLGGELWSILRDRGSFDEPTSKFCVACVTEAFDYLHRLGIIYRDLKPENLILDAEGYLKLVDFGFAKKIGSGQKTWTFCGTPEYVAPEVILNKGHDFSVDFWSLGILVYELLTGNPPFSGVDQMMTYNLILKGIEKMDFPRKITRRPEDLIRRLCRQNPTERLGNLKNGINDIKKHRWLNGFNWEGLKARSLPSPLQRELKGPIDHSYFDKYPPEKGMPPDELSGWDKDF

Chain of STK32A (human) (Q8WU08 whole entry, looked up): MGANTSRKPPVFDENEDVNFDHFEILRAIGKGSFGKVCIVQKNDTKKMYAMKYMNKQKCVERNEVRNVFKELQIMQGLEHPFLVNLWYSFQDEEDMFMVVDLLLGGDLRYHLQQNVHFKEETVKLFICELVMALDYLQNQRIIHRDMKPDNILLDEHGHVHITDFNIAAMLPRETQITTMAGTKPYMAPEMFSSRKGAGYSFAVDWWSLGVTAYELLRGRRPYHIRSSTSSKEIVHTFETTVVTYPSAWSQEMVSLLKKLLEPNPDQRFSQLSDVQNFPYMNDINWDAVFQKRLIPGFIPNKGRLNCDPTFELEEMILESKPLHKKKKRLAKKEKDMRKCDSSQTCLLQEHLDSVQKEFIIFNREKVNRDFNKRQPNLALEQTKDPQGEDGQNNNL
Chain of CDC42BPG (human) (Q6DT37 whole entry, looked up): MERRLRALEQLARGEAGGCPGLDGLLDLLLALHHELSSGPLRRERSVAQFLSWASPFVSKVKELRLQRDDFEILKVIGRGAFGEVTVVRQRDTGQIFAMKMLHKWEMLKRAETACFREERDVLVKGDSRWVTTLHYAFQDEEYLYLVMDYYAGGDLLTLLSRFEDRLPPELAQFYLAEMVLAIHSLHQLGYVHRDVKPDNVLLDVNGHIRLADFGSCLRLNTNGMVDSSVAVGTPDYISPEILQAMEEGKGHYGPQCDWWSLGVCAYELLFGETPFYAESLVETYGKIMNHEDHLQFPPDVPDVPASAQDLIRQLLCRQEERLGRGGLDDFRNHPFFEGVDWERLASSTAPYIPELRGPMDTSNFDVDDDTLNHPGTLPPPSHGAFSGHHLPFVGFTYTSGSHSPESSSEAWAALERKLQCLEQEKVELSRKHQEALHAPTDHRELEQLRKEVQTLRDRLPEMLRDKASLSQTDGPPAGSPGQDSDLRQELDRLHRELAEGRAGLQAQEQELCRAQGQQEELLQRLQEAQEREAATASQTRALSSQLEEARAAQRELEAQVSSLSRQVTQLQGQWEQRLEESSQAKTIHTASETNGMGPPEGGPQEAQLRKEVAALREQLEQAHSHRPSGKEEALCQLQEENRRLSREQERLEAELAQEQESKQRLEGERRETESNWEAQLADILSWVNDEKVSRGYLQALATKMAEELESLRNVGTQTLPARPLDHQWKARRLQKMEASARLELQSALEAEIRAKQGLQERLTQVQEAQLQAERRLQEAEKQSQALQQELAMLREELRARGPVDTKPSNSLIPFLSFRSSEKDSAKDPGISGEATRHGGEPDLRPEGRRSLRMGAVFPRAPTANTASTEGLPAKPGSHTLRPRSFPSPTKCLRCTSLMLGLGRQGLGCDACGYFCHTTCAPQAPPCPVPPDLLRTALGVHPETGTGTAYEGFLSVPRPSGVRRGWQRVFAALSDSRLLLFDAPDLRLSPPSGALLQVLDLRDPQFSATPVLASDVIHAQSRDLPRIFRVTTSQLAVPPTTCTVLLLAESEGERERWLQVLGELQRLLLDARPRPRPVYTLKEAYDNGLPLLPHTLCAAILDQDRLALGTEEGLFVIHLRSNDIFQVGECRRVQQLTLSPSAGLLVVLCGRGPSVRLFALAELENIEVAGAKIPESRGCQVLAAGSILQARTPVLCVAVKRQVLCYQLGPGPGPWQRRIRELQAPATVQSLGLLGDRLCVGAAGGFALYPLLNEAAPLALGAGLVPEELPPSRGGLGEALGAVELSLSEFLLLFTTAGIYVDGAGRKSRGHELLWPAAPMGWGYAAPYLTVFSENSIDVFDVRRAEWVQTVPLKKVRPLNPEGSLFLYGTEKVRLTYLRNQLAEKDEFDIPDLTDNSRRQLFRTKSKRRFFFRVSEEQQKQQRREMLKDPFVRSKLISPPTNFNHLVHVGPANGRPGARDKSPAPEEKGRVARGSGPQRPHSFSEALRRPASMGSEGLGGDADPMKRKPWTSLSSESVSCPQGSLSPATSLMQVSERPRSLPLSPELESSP
Chain of PRKCE (human) (Q02156 whole entry, looked up): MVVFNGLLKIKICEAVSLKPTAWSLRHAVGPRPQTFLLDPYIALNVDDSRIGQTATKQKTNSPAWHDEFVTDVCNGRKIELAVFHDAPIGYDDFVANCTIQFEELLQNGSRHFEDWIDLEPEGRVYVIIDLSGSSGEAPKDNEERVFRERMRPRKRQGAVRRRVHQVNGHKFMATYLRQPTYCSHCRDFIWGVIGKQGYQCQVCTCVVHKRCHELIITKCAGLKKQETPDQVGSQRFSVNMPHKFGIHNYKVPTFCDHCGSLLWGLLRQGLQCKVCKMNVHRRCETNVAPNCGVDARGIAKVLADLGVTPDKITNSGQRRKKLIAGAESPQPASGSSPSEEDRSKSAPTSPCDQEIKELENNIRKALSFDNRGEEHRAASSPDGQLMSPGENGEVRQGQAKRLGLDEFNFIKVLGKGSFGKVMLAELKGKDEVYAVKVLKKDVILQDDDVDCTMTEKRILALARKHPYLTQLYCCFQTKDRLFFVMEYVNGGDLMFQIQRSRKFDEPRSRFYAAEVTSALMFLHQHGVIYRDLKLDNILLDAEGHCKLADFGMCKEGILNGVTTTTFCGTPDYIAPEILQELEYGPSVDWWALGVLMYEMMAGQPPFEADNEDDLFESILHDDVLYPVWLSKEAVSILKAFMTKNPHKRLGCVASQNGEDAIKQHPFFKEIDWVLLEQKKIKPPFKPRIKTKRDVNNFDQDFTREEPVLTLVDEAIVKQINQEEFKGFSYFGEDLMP
Chain of HUNK (human) (P57058 whole entry, looked up): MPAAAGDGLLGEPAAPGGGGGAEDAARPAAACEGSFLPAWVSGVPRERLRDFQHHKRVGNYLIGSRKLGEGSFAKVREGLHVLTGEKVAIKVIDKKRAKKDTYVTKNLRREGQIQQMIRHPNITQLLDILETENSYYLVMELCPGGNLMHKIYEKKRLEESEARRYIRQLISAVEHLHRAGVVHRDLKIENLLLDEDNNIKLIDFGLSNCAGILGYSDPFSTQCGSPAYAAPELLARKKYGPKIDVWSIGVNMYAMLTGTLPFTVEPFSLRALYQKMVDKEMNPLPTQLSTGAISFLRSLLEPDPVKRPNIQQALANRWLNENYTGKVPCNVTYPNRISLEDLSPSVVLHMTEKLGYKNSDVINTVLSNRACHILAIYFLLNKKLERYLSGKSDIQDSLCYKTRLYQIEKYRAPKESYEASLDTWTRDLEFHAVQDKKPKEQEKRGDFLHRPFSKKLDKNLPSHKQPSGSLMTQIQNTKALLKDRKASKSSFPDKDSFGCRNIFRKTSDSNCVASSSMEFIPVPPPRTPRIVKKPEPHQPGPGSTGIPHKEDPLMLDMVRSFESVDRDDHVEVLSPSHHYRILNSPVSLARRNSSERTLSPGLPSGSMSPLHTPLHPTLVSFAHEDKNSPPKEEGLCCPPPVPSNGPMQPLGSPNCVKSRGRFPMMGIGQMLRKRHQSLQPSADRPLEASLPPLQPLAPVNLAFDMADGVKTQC
Chain of IRAK4 (human) (Q9NWZ3 whole entry, looked up): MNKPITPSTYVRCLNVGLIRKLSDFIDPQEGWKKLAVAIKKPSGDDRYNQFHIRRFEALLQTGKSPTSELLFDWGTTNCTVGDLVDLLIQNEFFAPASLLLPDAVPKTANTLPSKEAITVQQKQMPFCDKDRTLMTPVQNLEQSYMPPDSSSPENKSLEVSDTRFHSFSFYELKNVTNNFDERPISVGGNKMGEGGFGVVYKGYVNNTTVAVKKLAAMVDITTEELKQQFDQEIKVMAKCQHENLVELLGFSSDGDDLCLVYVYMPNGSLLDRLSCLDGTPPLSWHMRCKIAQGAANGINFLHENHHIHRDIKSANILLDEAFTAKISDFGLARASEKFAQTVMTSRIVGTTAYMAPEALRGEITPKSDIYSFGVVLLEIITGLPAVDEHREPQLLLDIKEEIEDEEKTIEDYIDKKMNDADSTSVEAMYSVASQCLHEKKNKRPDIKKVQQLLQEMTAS
Chain of CAMK1D (human) (Q8IU85 whole entry, looked up): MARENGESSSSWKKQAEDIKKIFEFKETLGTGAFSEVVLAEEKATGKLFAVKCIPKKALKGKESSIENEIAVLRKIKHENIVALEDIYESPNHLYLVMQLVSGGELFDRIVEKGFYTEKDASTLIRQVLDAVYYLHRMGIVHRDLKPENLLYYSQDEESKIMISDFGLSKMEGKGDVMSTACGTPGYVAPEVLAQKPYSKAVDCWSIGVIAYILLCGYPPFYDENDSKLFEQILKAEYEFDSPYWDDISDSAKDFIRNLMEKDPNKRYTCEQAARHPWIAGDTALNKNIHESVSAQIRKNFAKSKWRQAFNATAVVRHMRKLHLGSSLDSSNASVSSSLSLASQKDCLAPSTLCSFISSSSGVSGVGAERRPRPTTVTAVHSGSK

Question: Which results are given for `N#Cc1ccc2ncnc(NCCc3ccc4ccccc4c3)c2c1`?
Answer: kinase still bound, per cent of control [1]: 97%; kinase still bound, per cent of control [2]: 98%; kinase still bound, per cent of control [3]: 94%; kinase still bound, per cent of control [4]: 99%; kinase still bound, per cent of control [5]: 100%; kinase still bound, per cent of control [6]: 100%; kinase still bound, per cent of control [7]: 87%; kinase still bound, per cent of control [8]: 90%; kinase still bound, per cent of control [9]: 100%; kinase still bound, per cent of control [10]: 96%; kinase still bound, per cent of control [11]: 84%; kinase still bound, per cent of control [12]: 73%; kinase still bound, per cent of control [13]: 100%; kinase still bound, per cent of control [14]: 100%; kinase still bound, per cent of control [15]: 92%; kinase still bound, per cent of control [16]: 86%; kinase still bound, per cent of control [17]: 88%; kinase still bound, per cent of control [18]: 85%; kinase still bound, per cent of control [19]: 100%; kinase still bound, per cent of control [20]: 80%; kinase still bound, per cent of control [21]: 100%; kinase still bound, per cent of control [22]: 100%; kinase still bound, per cent of control [23]: 98%; kinase still bound, per cent of control [24]: 100%; kinase still bound, per cent of control [25]: 92%; kinase still bound, per cent of control [26]: 92%; kinase still bound, per cent of control [27]: 93%; kinase still bound, per cent of control [28]: 97%; kinase still bound, per cent of control [29]: 100%; kinase still bound, per cent of control [30]: 71%; kinase still bound, per cent of control [31]: 100%; kinase still bound, per cent of control [32]: 80%; kinase still bound, per cent of control [33]: 100%; kinase still bound, per cent of control [34]: 100%; kinase still bound, per cent of control [35]: 75%; kinase still bound, per cent of control [36]: 83%; kinase still bound, per cent of control [37]: 89%; kinase still bound, per cent of control [38]: 94%; kinase still bound, per cent of control [39]: 92%; kinase still bound, per cent of control [40]: 86%; kinase still bound, per cent of control [41]: 100%; kinase still bound, per cent of control [42]: 100%; kinase still bound, per cent of control [43]: 100%
